Values after ≈ are worked out from the molar mass of the structure shown. Active and inactive are the calls of the source. No cut-off for these calls is given here.

The test system of experiment [1] is Pseudomonas aeruginosa. The experiment can be described thus: Antibacterial activity against Pseudomonas aeruginosa after 24 hr by two-fold serial dilution method. It counts as functional.
Experiment [2] concerns Klebsiella pneumoniae. Description: Antibacterial activity against Klebsiella pneumoniae after 24 hr by two-fold serial dilution method. The class given is functional.
Experiment [3] has as its system Staphylococcus aureus. The experiment can be described thus: Antibacterial activity against Staphylococcus aureus after 24 hr by two-fold serial dilution method. It counts as functional.
The subject of experiment [4] is Salmonella typhi. Description: Antibacterial activity against Salmonella enterica subsp. enterica serovar Typhi after 24 hr by two-fold serial dilution method. The class given is functional.
The test system of experiment [5] is Aspergillus flavus. Description: Antifungal activity against Aspergillus flavus after 72 to 96 hr by two-fold serial dilution method. The class given is functional.
In experiment [6] the test system is Rhizopus. The experiment can be described thus: Antifungal activity against Rhizopus sp. after 72 to 96 hr by two-fold serial dilution method. It counts as functional.
For experiment [7], the system named is Candida albicans. Description: Antifungal activity against Candida albicans after 72 to 96 hr by two-fold serial dilution method. The class given is functional.
Experiment [8] deals with Aspergillus niger. Description: Antifungal activity against Aspergillus niger after 72 to 96 hr by two-fold serial dilution method. It counts as functional.
Experiment [9] deals with Escherichia coli. Description: Antibacterial activity against Escherichia coli after 24 hr by two-fold serial dilution method. The class given is functional.
In experiment [10] the test system is Cryptococcus neoformans. Description: Antifungal activity against Cryptococcus neoformans after 72 to 96 hr by two-fold serial dilution method. It counts as functional.
The test system of experiment [11] is Aspergillus flavus. The experiment can be described thus: Antifungal activity against Aspergillus flavus at 200 ug/ml after 72 to 96 hr by two-fold serial dilution method. The class given is functional, organism-based.
In experiment [12] the test system is Candida albicans. Description: Antifungal activity against Candida albicans at 200 ug/ml after 72 to 96 hr by two-fold serial dilution method. It counts as functional, organism-based.
The test system of experiment [13] is Rhizopus. Description: Antifungal activity against Rhizopus sp. at 200 ug/ml after 72 to 96 hr by two-fold serial dilution method. It counts as functional, organism-based.
The subject of experiment [14] is Klebsiella pneumoniae. Description: Antibacterial activity against Klebsiella pneumoniae at 200 ug/mL after 24 hr by two-fold serial dilution method. The class given is functional, organism-based.
The test system of experiment [15] is Escherichia coli. The experiment can be described thus: Ratio of ciprofloxacin MIC to compound MIC for Escherichia coli. The class given is functional.
Experiment [16] relates to Salmonella typhi. Description: Ratio of ciprofloxacin MIC to compound MIC for Salmonella enterica subsp. enterica serovar Typhi. It counts as functional.
For experiment [17], the system named is Klebsiella pneumoniae. Description: Ratio of ciprofloxacin MIC to compound MIC for Klebsiella pneumoniae. It counts as functional.
The test system of experiment [18] is Staphylococcus aureus. The experiment can be described thus: Ratio of ciprofloxacin MIC to compound MIC Staphylococcus aureus. It counts as functional.
Experiment [19] deals with Cryptococcus neoformans. Description: Ratio of amphotericin-B MIC to compound MIC for Cryptococcus neoformans. The class given is functional.
The test system of experiment [20] is Aspergillus niger. Description: Ratio of amphotericin-B MIC to compound MIC for Aspergillus niger. It counts as functional.

As to `COc1ccc(C2CC(=NOCc3ccccc3)CC(c3ccc(OC)cc3)N2C)cc1` (centres undefined), the MIC turned out to be 100 µg/mL (≈ 232 µM) in experiment [1]; 100 µg/mL (≈ 232 µM) in experiment [2]; 50 µg/mL (≈ 116 µM) in [3]; 50 µg/mL (≈ 116 µM) in experiment [4]; 50 µg/mL (≈ 116 µM) in experiment [5]; 50 µg/mL (≈ 116 µM) in experiment [6]. Moreover, the MIC in experiment [7] turned out to be 100 µg/mL (≈ 232 µM); in experiment [8], 50 µg/mL (≈ 116 µM); in [9] it was 100 µg/mL (≈ 232 µM); in [10], 50 µg/mL (≈ 116 µM).

`CN1C(c2ccccc2)CC(=NOCc2ccccc2)CC1c1ccccc1` (centres undefined): the MIC in [1] worked out at 100 µg/mL (≈ 270 µM); in [3], 200 µg/mL (≈ 540 µM); in experiment [4], 100 µg/mL (≈ 270 µM); in experiment [8], 100 µg/mL (≈ 270 µM); in [9], 200 µg/mL (≈ 540 µM); in experiment [10], 100 µg/mL (≈ 270 µM). Besides, the inhibition result in experiment [11], in experiment [12], in experiment [13] and in experiment [14] was “inactive” in each case.

For `CCC1/C(=N\OCc2ccccc2)CC(c2ccccc2)N(C)C1c1ccccc1` (centres undefined), the MIC in experiment [1] amounted to 25 µg/mL (≈ 62.7 µM); in [2], 200 µg/mL (≈ 502 µM); in experiment [3], 100 µg/mL (≈ 251 µM); in [4], 50 µg/mL (≈ 125 µM); in experiment [5] it was 100 µg/mL (≈ 251 µM); in experiment [6], 100 µg/mL (≈ 251 µM). For the same molecule, the MIC in [7] was determined as 100 µg/mL (≈ 251 µM); in experiment [8] it was 50 µg/mL (≈ 125 µM); in experiment [9] it was 100 µg/mL (≈ 251 µM); in experiment [10], 50 µg/mL (≈ 125 µM).

On to `C[C@@H]1[C@H](O)[C@@H](C)/C=C/C=C/C=C/C=C/C=C/C=C/C=C/[C@H](O[C@@H]2O[C@H](C)[C@@H](O)[C@H](N)[C@@H]2O)C[C@@H]2O[C@](O)(C[C@@H](O)C[C@@H](O)[C@H](O)CC[C@@H](O)C[C@@H](O)CC(=O)O[C@H]1C)C[C@H](O)[C@H]2C(=O)O` [AMPHOTERICIN B], for which the MIC in experiment [5] was found to be 50 µg/mL (≈ 54.1 µM); in experiment [6] it was 25 µg/mL (≈ 27.1 µM); in experiment [7], 25 µg/mL (≈ 27.1 µM); in [8], 50 µg/mL (≈ 54.1 µM); in experiment [10], 25 µg/mL (≈ 27.1 µM).

With `CC(C)C1/C(=N\OCc2ccccc2)CC(c2ccccc2)N(C)C1c1ccccc1` (centres undefined), the MIC came to 50 µg/mL (≈ 121 µM) in experiment [1]; 100 µg/mL (≈ 242 µM) in [2]; 100 µg/mL (≈ 242 µM) in experiment [3]; 50 µg/mL (≈ 121 µM) in experiment [4]; 200 µg/mL (≈ 485 µM) in experiment [6]; 50 µg/mL (≈ 121 µM) in experiment [7]. Further, the MIC in [8] was determined as 100 µg/mL (≈ 242 µM); in experiment [9], 50 µg/mL (≈ 121 µM); in experiment [10], 25 µg/mL (≈ 60.6 µM). In [11], the inhibition entry was “inactive”.

As to `CC1/C(=N\OCc2ccccc2)CC(c2ccc(Cl)cc2)N(C)C1c1ccc(Cl)cc1` (centres undefined), the MIC was found to be 50 µg/mL (≈ 110 µM) in experiment [1]; 25 µg/mL (≈ 55.1 µM) in experiment [2]; 50 µg/mL (≈ 110 µM) in experiment [3]; 25 µg/mL (≈ 55.1 µM) in experiment [4]; 50 µg/mL (≈ 110 µM) in [5]; 100 µg/mL (≈ 221 µM) in [6]. Moreover, the MIC in experiment [7] is 100 µg/mL (≈ 221 µM); in [8] it was 25 µg/mL (≈ 55.1 µM); in experiment [9], 12.5 µg/mL (≈ 27.6 µM); in experiment [10], 25 µg/mL (≈ 55.1 µM). The Ratio in experiment [15], in experiment [16] and in [17] was 1 each time.

With `CN1C(c2ccc(Cl)cc2)CC(=NOCc2ccccc2)CC1c1ccc(Cl)cc1` (centres undefined), the MIC came to 100 µg/mL (≈ 228 µM) in [1]; 100 µg/mL (≈ 228 µM) in [2]; 200 µg/mL (≈ 455 µM) in experiment [3]; 100 µg/mL (≈ 228 µM) in experiment [4]; 200 µg/mL (≈ 455 µM) in experiment [5]; 200 µg/mL (≈ 455 µM) in experiment [6]. Further, the MIC in experiment [7] came out at 100 µg/mL (≈ 228 µM); in experiment [8], 100 µg/mL (≈ 228 µM); in [9] it was 50 µg/mL (≈ 114 µM); in [10], 50 µg/mL (≈ 114 µM).

Take `COc1ccc(C2C/C(=N/OCc3ccccc3)C(C)C(c3ccc(OC)cc3)N2C)cc1` (centres undefined): the MIC in experiment [1] was 12.5 µg/mL (≈ 28.1 µM); in experiment [2], 25 µg/mL (≈ 56.2 µM); in experiment [3] it was 12.5 µg/mL (≈ 28.1 µM); in experiment [4], 50 µg/mL (≈ 112 µM); in experiment [5] it was 25 µg/mL (≈ 56.2 µM); in [6], 12.5 µg/mL (≈ 28.1 µM). The MIC was 25 µg/mL (≈ 56.2 µM) in [7], 25 µg/mL (≈ 56.2 µM) in experiment [8], 25 µg/mL (≈ 56.2 µM) in experiment [9] and 12.5 µg/mL (≈ 28.1 µM) in experiment [10]. For the same molecule, the Ratio in experiment [18] and in experiment [17] was 2 in each case.

Consider `O=C(O)c1cn(C2CC2)c2cc(N3CCNCC3)c(F)cc2c1=O` [CIPROFLOXACIN], for which the figures for the MIC in [4] and in experiment [9] were 50 µg/mL (≈ 151 µM) and 25 µg/mL (≈ 75.4 µM), respectively.

Take `CC1/C(=N\OCc2ccccc2)CC(c2ccccc2)N(C)C1c1ccccc1` (centres undefined): the MIC in experiment [1] came out at 50 µg/mL (≈ 130 µM); in experiment [3], 100 µg/mL (≈ 260 µM); in experiment [4], 100 µg/mL (≈ 260 µM); in experiment [5], 100 µg/mL (≈ 260 µM); in experiment [7], 200 µg/mL (≈ 520 µM); in [8], 50 µg/mL (≈ 130 µM). In addition, the MIC in experiment [9] and in experiment [10] was 100 µg/mL (≈ 260 µM) in each case. Further, the inhibition entry in experiment [13] and in experiment [14] was “inactive” throughout.

Turning to `Cc1ccc(C2CC(=NOCc3ccccc3)CC(c3ccc(C)cc3)N2C)cc1` (centres undefined), the MIC in experiment [1] turned out to be 100 µg/mL (≈ 251 µM); in experiment [2] it was 100 µg/mL (≈ 251 µM); in [3] it was 100 µg/mL (≈ 251 µM); in [4] it was 100 µg/mL (≈ 251 µM); in experiment [5], 100 µg/mL (≈ 251 µM); in experiment [6] it was 50 µg/mL (≈ 125 µM). Further, the MIC in experiment [7] was 100 µg/mL (≈ 251 µM); in [8], 50 µg/mL (≈ 125 µM); in experiment [9], 50 µg/mL (≈ 125 µM); in experiment [10], 50 µg/mL (≈ 125 µM).

As for `Cc1ccc(C2C/C(=N/OCc3ccccc3)C(C)C(c3ccc(C)cc3)N2C)cc1` (centres undefined), the MIC in [1] was 25 µg/mL (≈ 60.6 µM); in experiment [2], 50 µg/mL (≈ 121 µM); in [3] it was 50 µg/mL (≈ 121 µM); in experiment [4], 50 µg/mL (≈ 121 µM); in [5] it was 50 µg/mL (≈ 121 µM); in experiment [6] it was 25 µg/mL (≈ 60.6 µM). Moreover, the MIC in experiment [7] came out at 50 µg/mL (≈ 121 µM); in [8] it was 25 µg/mL (≈ 60.6 µM); in experiment [9] it was 50 µg/mL (≈ 121 µM); in [10], 12.5 µg/mL (≈ 30.3 µM). Also, the Ratio in [19] and in experiment [20] was 2 throughout.

The record behind these values is ChEMBL document CHEMBL3045603, “Synthesis and Microbiological Evaluation of Some N-Methyl Piperidone Oxime Ethers” (2005).
